# Source: US12624024B2, “EP2 antagonist compounds” (Reservoir Neuroscience, Inc., priority 2021, dated 2026)
# Target: T1, EP2 receptor (Homo sapiens, UniProt P43116)
# T1 construct: expressed in transfected cells; host or cells: CHO-K1 cells (ATCC), transient transfection with FuGENE 6
# Experiment: EP2 Potency Assay (cAMP TR-FRET, CHO-K1 cells transfected with EP2 receptor, PGE2 at EC80)
# Assay type: cell-based
# Conditions: CHO-K1 cells expressing EP2, prostaglandin E2 at EC80, read-out: EP2 Potency (IC50 category)
# Description: Compound potency was measured using a cAMP TR-FRET assay.
# After 6 hours incubation, the cell media was replaced with F12 medium supplemented with 10% FBS and 100 U/ml Pen-Strep. 24 hours after transfection, cells were harvested and seeded at a density of 3000 cells/well in a 384 well plate to perform the cAMP assay, using the LANCE Ultra cAMP assay kit (PerkinElmer).
# Plates were then centrifuged at 1000 rpm for 1 min, agitated at 600 rpm at R.T. for 2 min, and incubated at 25° C. for 5 min. The reference agonist, prostaglandin E2 (MCE), was added to each well at the appropriate concentration to reach its EC80 value. Plates were then centrifuged at 1000 rpm for 1 min, agitated at 600 rpm at R.T. for 2 min, and incubated at 25° C. for 30 min.
# A dose-response curve was prepared by plotting percent inhibition for each compound concentration, and then IC50 was calculated by fitting a curve to the plotted values and extrapolating the IC50 concentration.
# T1 sequence (P43116 whole entry): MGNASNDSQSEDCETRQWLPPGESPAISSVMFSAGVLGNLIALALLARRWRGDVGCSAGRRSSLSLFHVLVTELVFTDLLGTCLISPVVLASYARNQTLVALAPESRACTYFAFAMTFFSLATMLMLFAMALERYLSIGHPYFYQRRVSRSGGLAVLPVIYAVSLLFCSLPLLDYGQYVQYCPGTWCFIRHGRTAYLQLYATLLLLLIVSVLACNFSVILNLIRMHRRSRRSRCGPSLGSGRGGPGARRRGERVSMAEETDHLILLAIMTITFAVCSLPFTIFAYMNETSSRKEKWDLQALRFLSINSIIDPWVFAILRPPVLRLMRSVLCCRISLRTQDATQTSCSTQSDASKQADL
row,SMILES,IC50 [µM]
1,"Nc1nc(CN2CCOc3c(Cl)cc(-n4ccc5cc(F)ccc54)cc3C2)ns1 [Compound 117, 3-{[9-chloro-7-(5-fluoroindol-1-yl)-3,5-dihydro-2H-1,4-benzoxazepin-4-yl]methyl}-1,2,4-thiadiazol-5-amine]",> 5
2,O=c1nccc(CN2CCOc3c(Cl)cc(-n4ccc5cc(F)ccc54)cc3C2)[nH]1 [Compound 164],> 5
3,Fc1ccc2c(ccn2-c2cc(Cl)c3c(c2)CN(Cc2cncnc2)C2(CC2)CO3)c1 [Compound 218],> 5
4,Fc1ccc2c(ccn2-c2cc(Cl)c3c(c2)CN(Cc2ccco2)CCO3)c1 [Compound 89],> 5
5,"COc1ncc(CN2CCOc3c(Cl)cc(-n4ccc5c4CCCC5)cc3C2)cn1 [Compound 44, 9-chloro-4-[(2-methoxypyrimidin-5-yl)methyl]-7-(4,5,6,7-tetrahydroindol-1-yl)-3,5-dihydro-2H-1,4-benzoxazepine]",1 to 5
6,COc1cc(CN2CCOc3c(Cl)cc(-n4ccc5cc(F)ccc54)c(C)c3C2)ccn1 [Compound 221],> 5
7,"O=c1ncc(CN2CCOc3c(Cl)cc(-n4ccc5nccnc54)cc3C2)c[nH]1 [Compound 76, 5-[(9-chloro-7-{pyrrolo[2,3-b]pyrazin-5-yl}-3,5-dihydro-2H-1,4-benzoxazepin-4-yl)methyl]-1H-pyrimidin-2-one trifluoroacetic acid]",> 5
8,Fc1ccc2c(ccn2-c2cc(Cl)c3c(c2)CN(Cc2ccsc2)CCO3)c1 [Compound 92],> 5
9,COC(=O)c1cc(CN2CCOc3c(Cl)cc(-n4ccc5cc(F)ccc54)cc3C2)ccn1 [Compound 186],0.1 to 0.5
10,O=c1ncc(CN2CCOc3c(Cl)cc(-c4cccc5c4CCCC5)cc3C2)c[nH]1 [Compound 83],> 5
11,CN(C)C(=O)[C@H]1CC[C@H](CN2CCOc3c(Cl)cc(-n4ccc5cc(F)ccc54)cc3C2)CC1 [Compound 130],1 to 5
12,"Fc1ccc2c(ccn2-c2cc(Cl)c3c(c2)CN(Cc2cn[nH]n2)CCO3)c1 [Compound 108, 9-chloro-7-(5-fluoroindol-1-yl)-4-(2H-1,2,3-triazol-4-ylmethyl)-3,5-dihydro-2H-1,4-benzoxazepine]",1 to 5
13,CC(C)(C)OC(=O)Nc1cc(CN2CCOc3c(Cl)cc(-n4ccc5cc(F)ccc54)cc3C2)ccn1 [Compound 178],> 5
14,COc1ncc(CN2CCOc3c(Cl)cc(-c4cccc5ccccc45)cc3C2)cn1 [Compound 54],1 to 5
15,Fc1ccc2c(ccn2-c2cc(Cl)c3c(c2)CN(Cc2ccnc(Cl)c2C(F)(F)F)CCO3)c1 [Compound 192],0.1 to 0.5
16,O=c1ncc(CN2CCOc3c(Cl)cc(-c4cccc5c4OCCO5)cc3C2)c[nH]1 [Compound 85],> 5
17,"COc1ncc(CN2CCOc3c(Cl)cc(-n4cc(C(F)(F)F)c5ccccc54)cc3C2)cn1 [Compound 17, 9-chloro-4-[(2-methoxypyrimidin-5-yl)methyl]-7-[3-(trifluoromethyl)indol-1-yl]-3,5-dihydro-2H-1,4-benzoxazepine]",1 to 5
18,O=c1cc(CN2Cc3cc(-n4ccc5cc(F)ccc54)cc(Cl)c3OCC23CC3)cc[nH]1 [Compound 230],> 5
19,COc1ncc(CN2CCOc3c(Cl)cc(-n4ccc5nc(Cl)ccc54)cc3C2)cn1 [Compound 38],1 to 5
20,O=c1ncc(CN2CCOc3c(Cl)cc(-n4ccc5cc(Cl)ncc54)cc3C2)c[nH]1 [Compound 72],> 5
21,COc1ncc(CN2CCOc3c(Cl)cc(-n4ccc5c(F)c(Cl)ccc54)cc3C2)cn1 [Compound 26],0.5 to 1
22,COc1ncc(CN2CCOc3c(Cl)cc(-n4cc(Cl)c5cc(F)ccc54)cc3C2)cn1 [Compound 27],0.5 to 1
23,O=c1cc[nH]cc1CN1CCOc2c(Cl)cc(-n3ccc4cc(F)ccc43)cc2C1 [Compound 176],1 to 5
24,"O=C(O)[C@H]1CC[C@@H](CN2CCOc3c(Cl)cc(-n4ccc5cc(F)ccc54)cc3C2)CC1 [Compound 132, cis-4-{[9-chloro-7-(5-fluoroindol-1-yl)-3,5-dihydro-2H-1,4-benzoxazepin-4-yl]methyl}cyclohexane-1-carboxylic acid]",1 to 5
